Test results reported in patent US11850252B2, “Use of nor-ursodeoxycholic acid for reducing liver fat” (Dr. Falk Pharma GmbH, priority 2017, dated 2023).
Where “and” joins values, the source holds several entries; their conditions need not be identical. Equal entries are not always repeated.

Legend:
[1] = test system: Patients with a clinical diagnosis of non-alcoholic hepatic steatosis; assay: Liver enzymes (serum ALT, AST, GGT, AP, bilirubin), phase II clinical trial; type: in vivo, human; conditions: for change of AST: V2 to V6-LOCF; for ALT change, Mean ± SD / ALT/AST ratio change, Mean ± SD / AST change, Mean ± SD / Serum bilirubin change, Mean ± SD: V6 (LOCF)-V2; for patients fulfilling outcome criterion ALT≤0.8 ULN: patients with ALT>0.8 at baseline; for patients fulfilling outcome criterion ALT<ULN: patients with ALT>1.0 at baseline; for patients fulfilling outcome criterion ALT<1.5 ULN: patients with ALT>1.5 at baseline;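 on Serum bilirubin, Mean ± SD: unit mg/dL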
Experimental: A double-blinded, randomized, placebo-controlled phase II clinical trial was conducted as described in the following.
Patients with a clinical diagnosis of non-alcoholic hepatic steatosis were randomized to a 12-week treatment period and a 4-week follow-up. Patients were divided into three groups. The first groups received 1,500 mg Nor-UDCA per day (6 capsules with 250 mg Nor-UDCA in each capsule). The second group received 500 mg Nor-UDCA per day (2 capsules with 250 mg Nor-UDCA in each capsule and 4 capsules with 250 mg placebo in each capsule). The third group received 6 capsules with 250 mg placebo in each capsule.
The effects of Nor-UDCA on liver enzyme values have been assessed with respect to the courses of ALT, AST, GGT, AP and serum bilirubin. In addition, treatment effects with respect to pre-defined outcome criteria based on the upper limits of normal (ULN) of ALT, AST and GGT were examined.
The serum levels of ALT, AST, GGT, AP and serum bilirubin were determined by established standard laboratory methods.

[2] = test system: experimental alcoholic steatohepatitis; conditions: preventive administration; compared to UDCA; Belonovskaya et al. (2013); cited from earlier work
[3] = N500 (500 mg/day), V2 baseline week 0
[4] = N1500 (1,500 mg/day), V2 baseline week 0
[5] = N1500 (1,500 mg/day), V3 week 2
[6] = N1500 (1,500 mg/day), V4 week 4
[7] = N1500 (1,500 mg/day), V5 week 8
[8] = N1500 (1,500 mg/day), V6 (LOCF)
[9] = N1500 (1,500 mg/day), V6 week 12

SMILES: CC(CC(=O)O)[C@H]1CCC2[C@H]3C(CC[C@@]21C)[C@@]1(C)CCC(O)C[C@H]1C[C@@H]3O (stereo partly drawn) [Nor-UDCA, 24-nor-ursodeoxycholic acid]
- mean absolute change of ALT from V2 to V6-LOCF ([1]; N500 (500 mg/day)): −7.0 U/I
- patients fulfilling criterion AST>0.33 ULN to ≤0.67 ULN ([1]; N500 (500 mg/day)): 26.4%
- patients fulfilling outcome criterion GGT>0.33 ULN to ≤0.67 ([1]; N500 (500 mg/day)): 13.0%
- patients with combined criterion of ALT and/or AST decrease 15% ([1]; N500 (500 mg/day)): 49.3%
- proportion of patients fulfilling criterion AST<1.5 ULN ([1]; N500 (500 mg/day)): 50.0%
- proportion of patients fulfilling criterion AST<ULN ([1]; N500 (500 mg/day)): 27.3%
- proportion of patients, criterion GGT ULN ([1]; N500 (500 mg/day)): 12.2%
- GGT ([1]; N500 (500 mg/day), V2): 144.7 U/I
- ALT, Mean ± SD [1, 3]: 80.3 ± 33.3 U/l
- ALT/AST, Mean ± SD [1, 3]: 1.71 ± 0.50
- AP, Mean ± SD [1, 3]: 83.9 ± 27.6 U/l
- AST, Mean ± SD [1, 3]: 49.8 ± 27.4 U/l
- GGT, Mean ± SD [1, 3]: 144.7 ± 160.0 U/l
- Serum bilirubin, Mean ± SD [1, 3]: 0.64 ± 0.40 mg/dL
- change of AST ([1]; N500 (500 mg/day)): −3.8 U/I
- ALT, Mean ± SD ([1]; N500 (500 mg/day), V3 week 2): 79.4 ± 40.6 U/l
- ALT/AST, Mean ± SD ([1]; N500 (500 mg/day), V3 week 2): 1.70 ± 0.51
- AP, Mean ± SD ([1]; N500 (500 mg/day), V3 week 2): 88.3 ± 34.3 U/l
- AST, Mean ± SD ([1]; N500 (500 mg/day), V3 week 2): 47.9 ± 22.4 U/l
- GGT, Mean ± SD ([1]; N500 (500 mg/day), V3 week 2): 151.9 ± 166.4 U/l
- Serum bilirubin, Mean ± SD ([1]; N500 (500 mg/day), V3 week 2): 0.63 ± 0.38 mg/dL
- ALT, Mean ± SD ([1]; N500 (500 mg/day), V4 week 4): 75.2 ± 34.6 U/l
- ALT/AST, Mean ± SD ([1]; N500 (500 mg/day), V4 week 4): 1.67 ± 0.48
- AP, Mean ± SD ([1]; N500 (500 mg/day), V4 week 4): 86.5 ± 34.3 U/l
- AST, Mean ± SD ([1]; N500 (500 mg/day), V4 week 4): 46.0 ± 18.8 U/l
- GGT, Mean ± SD ([1]; N500 (500 mg/day), V4 week 4): 138.9 ± 141.6 U/l
- Serum bilirubin, Mean ± SD ([1]; N500 (500 mg/day), V4 week 4): 0.61 ± 0.38 mg/dL
- ALT, Mean ± SD ([1]; N500 (500 mg/day), V5 week 8): 75.6 ± 36.8 U/l
- ALT/AST, Mean ± SD ([1]; N500 (500 mg/day), V5 week 8): 1.66 ± 0.47
- AP, Mean ± SD ([1]; N500 (500 mg/day), V5 week 8): 86.1 ± 30.0 U/l
- AST, Mean ± SD ([1]; N500 (500 mg/day), V5 week 8): 46.9 ± 24.4 U/l
- GGT, Mean ± SD ([1]; N500 (500 mg/day), V5 week 8): 133.6 ± 124.2 U/l
- Serum bilirubin, Mean ± SD ([1]; N500 (500 mg/day), V5 week 8): 0.64 ± 0.41 mg/dL
- ALT, Mean ± SD ([1]; N500 (500 mg/day), V6 (LOCF)): 72.8 ± 33.2 U/l
- ALT/AST, Mean ± SD ([1]; N500 (500 mg/day), V6 (LOCF)): 1.67 ± 0.48
- AP, Mean ± SD ([1]; N500 (500 mg/day), V6 (LOCF)): 86.9 ± 32.2 U/l
- AST, Mean ± SD ([1]; N500 (500 mg/day), V6 (LOCF)): 45.6 ± 24.7 U/l
- GGT, Mean ± SD ([1]; N500 (500 mg/day), V6 (LOCF)): 137.6 ± 144.8 U/l
- Serum bilirubin, Mean ± SD ([1]; N500 (500 mg/day), V6 (LOCF)): 0.62 ± 0.38 mg/dL
- ALT change, Mean ± SD ([1]; N500 (500 mg/day)): −7.0 ± 27.4 U/l
- ALT/AST ratio change, Mean ± SD ([1]; N500 (500 mg/day)): −0.05 and −0.05 ± 0.37
- AST change, Mean ± SD ([1]; N500 (500 mg/day)): −3.8 ± 14.3 U/l
- Serum bilirubin change, Mean ± SD ([1]; N500 (500 mg/day)): -0.01 ± 0.22 mg/dL
- GGT ([1]; N500 (500 mg/day), V6-LOCF): 137.6 U/I
- ALT, Mean ± SD ([1]; N500 (500 mg/day), V6 week 12): 70.8 ± 31.6 U/l
- ALT/AST, Mean ± SD ([1]; N500 (500 mg/day), V6 week 12): 1.66 ± 0.45
- AP, Mean ± SD ([1]; N500 (500 mg/day), V6 week 12): 87.4 ± 32.7 U/l
- AST, Mean ± SD ([1]; N500 (500 mg/day), V6 week 12): 43.9 ± 20.4 U/l
- GGT, Mean ± SD ([1]; N500 (500 mg/day), V6 week 12): 139.2 ± 147.6 U/l
- Serum bilirubin, Mean ± SD ([1]; N500 (500 mg/day), V6 week 12): 0.62 ± 0.36 mg/dL
- patients fulfilling outcome criterion ALT≤0.8 ULN ([1]; N500 (500 mg/day)): 14.8%
- patients fulfilling outcome criterion ALT<ULN ([1]; N500 (500 mg/day)): 16.9%
- patients fulfilling outcome criterion ALT<1.5 ULN ([1]; N500 (500 mg/day)): 37.9%
- mean absolute change of ALT from V2 to V6-LOCF ([1]; N1500 (1,500 mg/day)): −17.2 U/I
- patients fulfilling criterion AST>0.33 ULN to ≤0.67 ULN ([1]; N1500 (1,500 mg/day)): 32.7%
- patients fulfilling outcome criterion GGT>0.33 ULN to ≤0.67 ([1]; N1500 (1,500 mg/day)): 21.6%
- patients with combined criterion of ALT and/or AST decrease 15% ([1]; N1500 (1,500 mg/day)): 71.6%
- proportion of patients fulfilling criterion AST<1.5 ULN ([1]; N1500 (1,500 mg/day)): 75.0%
- proportion of patients fulfilling criterion AST<ULN ([1]; N1500 (1,500 mg/day)): 54.5%
- proportion of patients, criterion GGT ULN ([1]; N1500 (1,500 mg/day)): 31.0%
- GGT ([1]; N1500 (1,500 mg/day), V2): 178.8 U/I
- ALT, Mean ± SD [1, 4]: 78.6 ± 34.2 U/l
- ALT/AST, Mean ± SD [1, 4]: 1.68 ± 0.53
- AP, Mean ± SD [1, 4]: 92.0 ± 36.6 U/l
- AST, Mean ± SD [1, 4]: 49.3 ± 25.1 U/l
- GGT, Mean ± SD [1, 4]: 178.8 ± 205.6 U/l
- Serum bilirubin, Mean ± SD [1, 4]: 0.61 ± 0.32 mg/dL
- change of AST ([1]; N1500 (1,500 mg/day)): −8.7 U/I
- ALT, Mean ± SD [1, 5]: 72.8 ± 33.1 U/l
- ALT/AST, Mean ± SD [1, 5]: 1.66 ± 0.41
- AP, Mean ± SD [1, 5]: 95.4 ± 40.1 U/l
- AST, Mean ± SD [1, 5]: 43.7 ± 15.7 U/l
- GGT, Mean ± SD [1, 5]: 170.1 ± 217.9 U/l
- Serum bilirubin, Mean ± SD [1, 5]: 0.52 ± 0.26 mg/dL
- ALT, Mean ± SD [1, 6]: 62.6 ± 24.7 U/l
- ALT/AST, Mean ± SD [1, 6]: 1.53 ± 0.41
- AP, Mean ± SD [1, 6]: 90.9 ± 32.0 U/l
- AST, Mean ± SD [1, 6]: 42.6 ± 19.9 U/l
- GGT, Mean ± SD [1, 6]: 128.5 ± 126.1 U/l
- Serum bilirubin, Mean ± SD [1, 6]: 0.53 ± 0.26 mg/dL
- ALT, Mean ± SD [1, 7]: 62.0 ± 27.9 U/l
- ALT/AST, Mean ± SD [1, 7]: 1.54 ± 0.34
- AP, Mean ± SD [1, 7]: 91.1 ± 33.3 U/l
- AST, Mean ± SD [1, 7]: 40.5 ± 16.3 U/l
- GGT, Mean ± SD [1, 7]: 111.5 ± 112.7 U/l
- Serum bilirubin, Mean ± SD [1, 7]: 0.54 ± 0.28 mg/dL
- ALT, Mean ± SD [1, 8]: 61.8 ± 28.3 U/l
- ALT/AST, Mean ± SD [1, 8]: 1.54 ± 0.34
- AP, Mean ± SD [1, 8]: 91.8 ± 32.1 U/l
- AST, Mean ± SD [1, 8]: 40.8 ± 19.1 U/l
- GGT, Mean ± SD [1, 8]: 111.7 ± 116.3 U/l
- Serum bilirubin, Mean ± SD [1, 8]: 0.57 ± 0.31 mg/dL
- ALT change, Mean ± SD ([1]; N1500 (1,500 mg/day)): −17.2 ± 23.3 U/l
- ALT/AST ratio change, Mean ± SD ([1]; N1500 (1,500 mg/day)): −0.14 and −0.14 ± 0.42
- AST change, Mean ± SD ([1]; N1500 (1,500 mg/day)): −8.7 ± 13.6 U/l
- Serum bilirubin change, Mean ± SD ([1]; N1500 (1,500 mg/day)): -0.03 ± 0.20 mg/dL
- GGT ([1]; N1500 (1,500 mg/day), V6-LOCF): 111.7 U/I
- ALT, Mean ± SD [1, 9]: 62.8 ± 29.1 U/l
- ALT/AST, Mean ± SD [1, 9]: 1.55 ± 0.34
- AP, Mean ± SD [1, 9]: 92.9 ± 31.3 U/l
- AST, Mean ± SD [1, 9]: 41.3 ± 19.8 U/l
- GGT, Mean ± SD [1, 9]: 109.6 ± 115.8 U/l
- Serum bilirubin, Mean ± SD [1, 9]: 0.56 ± 0.32 mg/dL
- patients fulfilling outcome criterion ALT≤0.8 ULN ([1]; N1500 (1,500 mg/day)): 17.5%
- patients fulfilling outcome criterion ALT<ULN ([1]; N1500 (1,500 mg/day)): 35.7%
- patients fulfilling outcome criterion ALT<1.5 ULN ([1]; N1500 (1,500 mg/day)): 53.1%
- differences in the course of AP and serum bilirubin values between N1500, N500 and Placebo ([1]; N1500 and N500 versus Placebo): no relevant differences
- preventing the accumulation of triglycerides in the liver [2]: most effective
